ChEMBL document CHEMBL1128957, “In vivo potent antifilarial -carbolines” (1996)
Calls of active or inactive are those of the source. The calls are words filed in the database; no cut-off is given here.

Tests used:
Rattus norvegicus [1] = assay: In vivo macrofilaricidal activity against Litomosoides carinii in cotton rats at a dose of 30 mg/kg for 5 days administered i.p.: Inactive; assay type: functional, organism-based; set-up: dose 30 mg/kg
Rattus norvegicus [2] = assay: In vivo macrofilaricidal activity against Acanthocheilonema viteae in Mastomys natalensis at a dose of 50 mg/kg for 5 days administered i.p.; assay type: functional; conditions: route intraperitoneal
Rattus norvegicus [3] = organism: Rattus norvegicus; assay: Percentage of sterilization of surviving female worm Acanthocheilonema viteae in Mastomys natalensis: Inactive; assay type: functional, organism-based
Rattus norvegicus [4] = assay: In vivo microfilaricidal activity against Litomosoides carinii in cotton rats at a dose of 30 mg/kg for 5 days administered i.p.: Inactive; assay type: functional, organism-based; set-up: dose 30 mg/kg
Rattus norvegicus [5] = assay: In vivo microfilaricidal activity against A. viteae in Mastomys natalensis at a dose of 50 mg/kg for 5 days administered i.p.: Inactive; assay type: functional, organism-based; set-up: dose 50 mg/kg
Rattus norvegicus [6] = assay: In vivo macrofilaricidal activity against Litomosoides carinii in cotton rats at a dose of 30 mg/kg for 5 days administered i.p.; assay type: functional; conditions: route intraperitoneal
Rattus norvegicus [7] = assay: In vivo microfilaricidal activity against Litomosoides carinii in cotton rats at a dose of 30 mg/kg for 5 days administered i.p.; assay type: functional; conditions: route intraperitoneal
Rattus norvegicus [8] = assay: In vivo macrofilaricidal activity against A. viteae in Mastomys natalensis at a dose of 50 mg/kg for 5 days administered i.p.: Inactive; assay type: functional, organism-based; set-up: dose 50 mg/kg
Rattus norvegicus [9] = organism: Rattus norvegicus; assay: Percentage of sterilization of surviving female worm Acanthocheilonema viteae: Inactive; assay type: functional, organism-based
Rattus norvegicus [10] = organism: Rattus norvegicus; assay: Percentage of sterilization of surviving female worm Acanthocheilonema viteae in Mastomys natalensis; assay type: functional
Rattus norvegicus [11] = assay: In vivo macrofilaricidal activity against Litomosoides carinii in cotton rats at a dose of 6 mg/kg for 5 days administered i.p.: Inactive; assay type: functional, organism-based; set-up: dose 6 mg/kg
Rattus norvegicus [12] = assay: In vivo macrofilaricidal activity against A. viteae in Mastomys natalensis at a dose of 350 mg/kg for 5 days administered i.p.: Inactive; assay type: functional, organism-based; set-up: dose 350 mg/kg

Row | SMILES | Death (Rattus norvegicus [1]) | Death (Rattus norvegicus [2]) | Activity (Rattus norvegicus [3]) | Death (Rattus norvegicus [4]) | Death (Rattus norvegicus [5]) | Death (Rattus norvegicus [6]) | Death (Rattus norvegicus [8]) | also measured
1 | NC(=O)C1NCCc2c1[nH]c1ccccc21 (stereo not given) | inactive | 84% | inactive | inactive | inactive |  |  | 
2 | N#Cc1[nH]ccc2c3ccccc3nc1-2 |  | 50% | inactive |  | inactive | 78% |  | Death (Rattus norvegicus [7]): 59%
3 | COC(=O)c1nccc2c1[nH]c1ccccc12 | inactive |  |  | inactive |  |  | inactive | Activity (Rattus norvegicus [9]): inactive
4 | COC(=O)C1NCCc2c1[nH]c1ccccc21 (stereo not given) |  |  | inactive | inactive |  | 81% | inactive | 
5 | NC(=O)c1nccc2c1[nH]c1ccccc12 | inactive | 50% |  | inactive |  |  |  | Activity (Rattus norvegicus [10]): 100
6 | CCN(CC)C(=O)N1CCN(C)CC1.O=C(O)CC(O)(CC(=O)O)C(=O)O [DIETHYLCARBAMAZINE CITRATE] |  |  | inactive |  |  |  |  | Death (Rattus norvegicus [11]): inactive; Death (Rattus norvegicus [12]): inactive
